Reference: US10125358B2, “Methods and compounds for increasing threonyl-tRNA synthetase activity” (UNIVERSITY OF VERMONT AND STATE AGRICULTURAL COLLEGE, priority 2012, dated 2018)
“Also recorded” adds a separate entry of the source.

Key:
[1] = system: Human umbilical vein endothelial cells (HUVECs); test: In vitro endothelial tube formation assay on Matrigel; assay type: cell-based
Procedure: In Vitro Tube Formation Assay—
Tube formation assays were performed as described (Arnaoutova and Kleinman 2010; Cassavaugh, Hale et al. 2011). Human Umbilical Vein Endothelial Cells (HUVECs) were seeded in 48-well plates (1.5×10^4 cells/well) coated with 100 μl of Matrigel™ Basement Membrane Matrix Growth Factor Reduced (BD Biosciences, San Jose, Calif.) and incubated in Clonetics® EGM®-2 complete media (Lonza, Annandale, N.J.) or EGM®-2 with reduced serum (0.2% fetal bovine serum). Cells were incubated at 37° C. for 6 h then fixed in 10% formalin. Fixed samples were imaged by phase-contrast microscopy or stained with Oregon Green 488 Phalloidin (Molecular Probes, Eugene, Oreg.) then imaged with fluorescence microscopy (2× objective). Number of tubes and tube lengths (in pixels) were quantified using the Simple Neurite Tracer (Longair, Baker et al. 2011) plug-in on ImageJ software (NIH). Statistical analysis of one-way ANOVA was performed with GraphPad Software. Multiple comparisons were performed using the Tukey Test.

TARS [2] = target: T1, TARS (Homo sapiens, UniProt P26639); test: Ap4G formation assay (TLC, [α-32P]-GTP); assay type: biochemical; design: His6 (N); made in house; host or cells: E. coli Rosetta 2 (DE3)pLysS, plasmid pET28a hctThrRS
T1 sequence (P26639 1-723): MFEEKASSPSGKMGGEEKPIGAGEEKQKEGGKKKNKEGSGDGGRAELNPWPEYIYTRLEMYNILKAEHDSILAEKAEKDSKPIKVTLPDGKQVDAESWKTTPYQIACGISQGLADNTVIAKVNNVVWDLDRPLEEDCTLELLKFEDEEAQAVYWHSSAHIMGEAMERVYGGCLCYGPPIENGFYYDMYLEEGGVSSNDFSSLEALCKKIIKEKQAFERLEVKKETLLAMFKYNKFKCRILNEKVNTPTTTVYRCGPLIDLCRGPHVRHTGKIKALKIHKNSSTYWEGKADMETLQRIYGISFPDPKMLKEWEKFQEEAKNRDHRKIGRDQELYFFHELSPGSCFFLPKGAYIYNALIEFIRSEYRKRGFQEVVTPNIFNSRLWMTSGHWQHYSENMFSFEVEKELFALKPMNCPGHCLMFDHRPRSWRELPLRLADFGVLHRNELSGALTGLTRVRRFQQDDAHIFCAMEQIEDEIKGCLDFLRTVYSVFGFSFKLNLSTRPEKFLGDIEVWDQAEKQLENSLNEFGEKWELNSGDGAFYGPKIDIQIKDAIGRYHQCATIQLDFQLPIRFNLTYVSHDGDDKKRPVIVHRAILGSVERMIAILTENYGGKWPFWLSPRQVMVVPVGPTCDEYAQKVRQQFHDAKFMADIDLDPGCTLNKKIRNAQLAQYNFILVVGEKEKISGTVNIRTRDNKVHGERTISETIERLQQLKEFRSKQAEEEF

TARS [3] = target: T1, TARS; test: Ap4A formation assay (TLC, [α-32P]-ATP); assay type: biochemical; design: His6 (N); made in house; host or cells: E. coli Rosetta 2 (DE3)pLysS, plasmid pET28a hctThrRS
[4] = system: chorioallantoic membrane (CAM) of chicken embryos; test: Chick chorioallantoic membrane (CAM) assay; assay type: in vivo
Procedure: Chick Chorioallantoic Membrane Assay—
Fertilized chicken eggs (Sunrise Farms, Catskill, N.Y.) day 1-2 post-laying were incubated in a humidified incubator at 37° C. for 72 h. Cleaned eggs were cracked and plated in a sterile 10 cm^2 tissue culture-treated dish and incubated at 37° C. for another 7 days. On developmental day 10, 1 mm^3 sterile gelatin sponge pieces (Surgifoam®; Johnson & Johnson Wound Management, Somerville, N.J.) were placed within the outer one-third of the membrane between large vessels. […] All compounds were applied in 10 μl to the CAM every 24 h for 72 h. Images were taken using a Leica MZ6 stereomicroscope every 24 h. Compounds were scored according to a modified version of Intensity Scoring as previously described (Ribatti, Nico et al. 2006). Briefly, each experimental condition was given a blinded score from 0-5 based on the change in the extent of vessel convergence and formation in proximity to the sponge from day 0 to day 3. Total score is averaged individual experimental condition scores from at least 15 replicates.
Fertilized chicken embryos were cultured ex-ova and, starting at developmental day 10, agents were applied daily to gelfoam sponges on the CAM. Images were recorded daily over 72 h and scored blindly according to a modified version Intensity Scoring as previously described (Ribatti, Nico et al. 2006). Additional details regarding methods are provided in the Methods and Materials section of Example 1.

TARS [5] = target: T1, TARS; test: GTPase (GTP hydrolysis) assay; assay type: biochemical; design: His6 (N); made in house; host or cells: E. coli Rosetta 2 (DE3)pLysS, plasmid pET28a hctThrRS; conditions: for GTP hydrolysis rate: 2 mM GTP
HUVECs = test: Endothelial cell proliferation assay (alamarBlue); assay type: cell-based, human
Procedure: Endothelial Cell Proliferation Assay—
The […] alamarBlue® (Invitrogen) reagent was used to assess cell proliferation (Ahmed, Gogal et al. 1994). HUVECs were seeded in a 96-well dish (1×10^3 cells/well) and grown for 48 h in EGM®-2 media. […] After 48 h, 72 h, or 96 h in culture, 10 μl/well premixed alamarBlue® (Invitrogen) was added and after 3 h at 37° C. the amount of reduced alamarBlue® was quantified by fluorescence (excitation at 530 nm, emission at 590 nm) on a microplate reader (Synergy™ HT, BioTek, Winooski, Vt.).

HUVEC = test: Transwell migration assay; assay type: cell-based, human; conditions: 4 h
Procedure: Transwell Migration Assay—
Migration was assessed using transwell inserts (Svensson, Kucharzewska et al. 2011). […] Cultures were incubated for 4 h, fixed in 10% formalin, and stained with 10 μg/ml DAPI solution (Roche) following removal of cells from the top layer of the chamber with a cotton swab. Migrated cells were imaged using a 4× objective on the Olympus IX70 Inverted microscope (Olympus). DAPI-stained nuclei were counted using ImageJ software.

`C[C@@H]1C[C@H](C)C[C@H](C)[C@@H](O)CC(=O)O[C@H]([C@@H]2CC[C@H]2C(=O)O)C/C=C/C=C(/C#N)[C@H](O)[C@@H](C)C1` [BC194] was tested, and the “number of branches formed by endothelial cells in tube formation assay” value ([1]; HUVECs on Matrigel, full serum media, 6 h, range of BC194 concentrations) was “sensitive to subnanomolar concentrations; also recorded: inhibits endothelial tube formation”, the “tube (branch) length” value ([1]; HUVECs, range of BC194 concentrations) was “unaffected; also recorded: does not affect” and the “concentration required to affect tube formation relative to that required to detect unfolded protein response (phospho-eIF2α) and apoptosis (cleaved caspase-3)” value ([1]; lower) was 100 fold. The “Ap4G synthesis, inhibition (qualitative)” value (TARS [2]; human TARS, 10 μM compound) was “at least partially inhibited”, the “reduction of Ap4G reaction rate” value (TARS [2]; wildtype TARS, 10 μM BC194) was 57% and the “Ap4A synthesis, inhibition (qualitative)” value (TARS [3]; human TARS, 10 μM compound) was “at least partially inhibited”. The “decrease in Ap4A formation activity” value (TARS [3]; wildtype TARS, 10 μM compound) was 31.0%, the “CAM vessel formation, effect of inhibitor” value ([4]; BC194 10 nM applied daily, basal level and after stimulation with bFGF or VEGF) was “inhibited vessel formation” and the “change of TARS GTPase activity upon treatment with inhibitor” value (TARS [5]; 10 μM compound) was “no observable change”. The “VEGF proliferative response, effect of BC194” value (HUVECs; HUVECs, 50 ng/ml VEGF, 10 nM BC194) was “did not significantly reduce”, the proliferation (HUVECs; HUVECs, BC194 concentrations below 100 nM) was “unaffected” and the “VEGF- and TARS-mediated migration, effect of BC194” value (HUVEC; 10 nM BC194 with 50 ng/ml VEGF or 100 nM TARS) was “reduced both the migration effects of VEGF and TARS”.

B1: TARS: N-terminal His6-tagged human threonyl-tRNA synthetase expressed and purified from E. coli; SEQ ID NO:2 (protein, listed as Homo sapiens)
chain: MFEEKASSPSGKMGGEEKPIGAGEEKQKEGGKKKNKEGSGDGGRAELNPWPEYIYTRLEMYNILKAEHDSILAEKAEKDSKPIKVTLPDGKQVDAESWKTTPYQIACGISQGLADNTVIAKVNNVVWDLDRPLEEDCTLELLKFEDEEAQAVYWHSSAHIMGEAMERVYGGCLCYGPPIENGFYYDMYLEEGGVSSNDFSSLEALCKKIIKEKQAFERLEVKKETLLAMFKYNKFKCRILNEKVNTPTTTVYRCGPLIDLCRGPHVRHTGKIKALKIHKNSSTYWEGKADMETLQRIYGISFPDPKMLKEWEKFQEEAKNRDHRKIGRDQELYFFHELSPGSCFFLPKGAYIYNALIEFIRSEYRKRGFQEVVTPNIFNSRLWMTSGHWQHYSENMFSFEVEKELFALKPMNCPGHCLMFDHRPRSWRELPLRLADFGVLHRNELSGALTGLTRVRRFQQDDAHIFCAMEQIEDEIKGCLDFLRTVYSVFGFSFKLNLSTRPEKFLGDIEVWDQAEKQLENSLNEFGEKWELNSGDGAFYGPKIDIQIKDAIGRYHQCATIQLDFQLPIRFNLTYVSHDGDDKKRPVIVHRAILGSVERMIAILTENYGGKWPFWLSPRQVMVVPVGPTCDEYAQKVRQQFHDAKFMADIDLDPGCTLNKKIRNAQLAQYNFILVVGEKEKISGTVNIRTRDNKVHGERTISETIERLQQLKEFRSKQAEEEF
modifications: N-terminal His6 tag
For B1, the “number of tube branches” value ([1]; 100 nM purified recombinant human TARS added to low serum (0.2% FBS) media, 6 h) was “significantly increased; also recorded: promotes angiogenesis”, the Ap4G formation rate (TARS [2]; 2 mM ATP, 2 mM threonine, 2 mM GTP) was 0.1639 Ap4G/active site/min and the Ap4A production rate (TARS [3]; 5 μM enzyme, 2 mM threonine, 2 mM ATP) was 0.1391 Ap4A/active site/min. The “sensitivity of synthetase-induced CAM angiogenesis to BC194” value ([4]; protein plus BC194 applied to CAM) was “sensitive to BC194”, the “CAM vessel formation / vascularity, effect of applied synthetase” value ([4]; purified protein applied daily to gelfoam sponge, 72 h) was “stimulated vessel formation; also recorded: induces in vivo angiogenesis” and the GTP hydrolysis rate (TARS [5]; listed as human TARS) was “potent GTPase activities”. For the same molecule, the GTP hydrolysis rate (TARS [5]; listed as wildtype) was 0.3033 GDP/active site/min, the “cell proliferation, effect of TARS” value (HUVECs; HUVECs in low serum (0.2% FBS) media) was “did not exert a significant effect; also recorded: does not significantly affect cell proliferation” and the “migration of endothelial cells” value (HUVEC; 100 nM protein in migration compartment) was “significantly increased migration; also recorded: selectively induces migration”.
